As a reminder, the IC50 is the point on the concentration scale where inhibition reaches its midpoint. Higher therefore signals weaker potency.

The source of these data is ChEMBL document CHEMBL4152218, “Novel hydrazide-hydrazone and amide substituted coumarin derivatives: Synthesis, cytotoxicity screening, microarray, radiolabeling and in vivo pharmacokinetic studies” (Eur J Med Chem, 2018).

The test system of one series is hTERT-BJ. In words: Cytotoxicity against hTERT-BJ cells at 12.50 uM after 48 hrs by resazurin dye-based fluorescence assay relative to control. It counts as cell-based. As to conditions: human, 12.5 µM. On the technique in general: Resazurin is reduced to fluorescent resorufin, in cell work by metabolically active cells.
`CCOc1ccc(NC(=O)c2cc3cc([N+](=O)[O-])ccc3oc2=O)cc1` had an Activity of 1.66%.
Still for that read-out and setting: under `CCOc1ccc(NC(=O)c2cc3cc(Br)ccc3oc2=O)cc1` stands 1.19%.

The test system of another series is TERT-RPE1. In words: Cytotoxicity against hTERT-RPE1 cells at 50 uM after 48 hrs by resazurin dye-based fluorescence assay relative to control. It counts as cell-based. The settings on record: human, tert-rpe1, 48 h.
The compound `CCOc1ccc(NC(=O)c2cc3cc([N+](=O)[O-])ccc3oc2=O)cc1` came in with an Activity of 9.35%.
The same measure, in the same setting: under `CCOc1ccc(NC(=O)c2cc3cc(Br)ccc3oc2=O)cc1` stands 16.45%.

The subject of a further series is PANC-1. In words: Antiproliferative activity against human PANC1 cells after 48 hrs by resazurin dye-based fluorescence assay. It counts as functional, cell-based. As to conditions: PANC-1, 48 h.
Compound `CCOc1ccc(NC(=O)c2cc3cc([N+](=O)[O-])ccc3oc2=O)cc1` showed an IC50 of 12.1 µM.
`CCOc1ccc(NC(=O)c2cc3cc(Br)ccc3oc2=O)cc1` came in with an IC50 of 16.8 µM.
Compound `COc1cccc2c1C(=O)c1c(O)c3c(c(O)c1C2=O)C[C@@](O)(C(=O)CO)C[C@@H]3O[C@H]1C[C@H](N)[C@H](O)[C@H](C)O1` [DOXORUBICIN] yielded an IC50 of 6.9 µM.

The subject of a further series is HepG2. In words: Antiproliferative activity against human HepG2 cells after 48 hrs by resazurin dye-based fluorescence assay. The class given is functional, cell-based. The settings on record: HepG2, 48 h.
Take `CCOc1ccc(NC(=O)c2cc3cc([N+](=O)[O-])ccc3oc2=O)cc1`: the IC50 worked out at 28.3 µM.
`CCOc1ccc(NC(=O)c2cc3cc(Br)ccc3oc2=O)cc1` returned an IC50 of 37 µM.
In turn, `COc1cccc2c1C(=O)c1c(O)c3c(c(O)c1C2=O)C[C@@](O)(C(=O)CO)C[C@@H]3O[C@H]1C[C@H](N)[C@H](O)[C@H](C)O1` [DOXORUBICIN] returned an IC50 of 5.43 µM.

Test system in a further series: not listed separately
In words: Selectivity index, ratio of IC50 for hTERT-RPE1 cells to IC50 for human PANC1 cells. As to conditions: hTERT-RPE1 cells versus PANC1 cells, read-out: Ratio IC50. The class given is toxicity.
For the compound `CCOc1ccc(NC(=O)c2cc3cc([N+](=O)[O-])ccc3oc2=O)cc1`, the selectivity ratio was over 4.13.
With `CCOc1ccc(NC(=O)c2cc3cc(Br)ccc3oc2=O)cc1`, the selectivity ratio is over 2.97.
Still for that read-out and setting: under `COc1cccc2c1C(=O)c1c(O)c3c(c(O)c1C2=O)C[C@@](O)(C(=O)CO)C[C@@H]3O[C@H]1C[C@H](N)[C@H](O)[C@H](C)O1` [DOXORUBICIN] stands under 0.91.

The subject of a further series is TERT-RPE1. Nature of the series: Cytotoxicity against hTERT-RPE1 cells at 12.50 uM after 48 hrs by resazurin dye-based fluorescence assay relative to control. It counts as cell-based. The settings on record: human, tert-rpe1, 48 h, 12.5 µM.
Regarding `CCOc1ccc(NC(=O)c2cc3cc([N+](=O)[O-])ccc3oc2=O)cc1`, the Activity turned out to be 6.01%.
On the same count and under the same terms, under `CCOc1ccc(NC(=O)c2cc3cc(Br)ccc3oc2=O)cc1` stands 9.63%.

For a further series, the system named is TERT-RPE1. Nature of the series: Cytotoxicity against hTERT-RPE1 cells at 6.25 uM after 48 hrs by resazurin dye-based fluorescence assay relative to control. As to conditions: human, tert-rpe1, 48 h. It counts as cell-based.
For `CCOc1ccc(NC(=O)c2cc3cc([N+](=O)[O-])ccc3oc2=O)cc1`, the Activity is recorded as 5.12%.
Compound `CCOc1ccc(NC(=O)c2cc3cc(Br)ccc3oc2=O)cc1` yielded an Activity of 3.04%.

For a further series, the system named is CCRF-CEM. In words: Antiproliferative activity against human CCRF-CEM cells after 48 hrs by resazurin dye-based fluorescence assay. The class given is functional, cell-based.
Conditions: not given
In the case of `CCOc1ccc(NC(=O)c2cc3cc([N+](=O)[O-])ccc3oc2=O)cc1`, the concentration for half-maximal inhibition (IC50) came to 13.2 µM.
Turning to `CCOc1ccc(NC(=O)c2cc3cc(Br)ccc3oc2=O)cc1`, the 50% inhibitory concentration (IC50) was 21.8 µM.
In the case of `COc1cccc2c1C(=O)c1c(O)c3c(c(O)c1C2=O)C[C@@](O)(C(=O)CO)C[C@@H]3O[C@H]1C[C@H](N)[C@H](O)[C@H](C)O1` [DOXORUBICIN], the IC50 was determined as 1.05 µM.

Test system in a further series: not listed separately
Nature of the series: Selectivity index, ratio of IC50 for hTERT-RPE1 cells to IC50 for human CCRF-CEM cells. The settings on record: hTERT-RPE1 cells versus CCRF-CEM cells, read-out: Ratio IC50. It counts as toxicity.
With `CCOc1ccc(NC(=O)c2cc3cc([N+](=O)[O-])ccc3oc2=O)cc1`, the selectivity ratio was over 3.78.
For the compound `CCOc1ccc(NC(=O)c2cc3cc(Br)ccc3oc2=O)cc1`, the selectivity ratio is over 2.3.
The same measure, in the same setting: under `COc1cccc2c1C(=O)c1c(O)c3c(c(O)c1C2=O)C[C@@](O)(C(=O)CO)C[C@@H]3O[C@H]1C[C@H](N)[C@H](O)[C@H](C)O1` [DOXORUBICIN] stands under 5.95.

Another series concerns hTERT-BJ. Nature of the series: Cytotoxicity against hTERT-BJ cells at 50 uM after 48 hrs by resazurin dye-based fluorescence assay relative to control. It counts as cell-based. As to conditions: human.
With `CCOc1ccc(NC(=O)c2cc3cc([N+](=O)[O-])ccc3oc2=O)cc1`, the Activity was 6.11%.
On to `CCOc1ccc(NC(=O)c2cc3cc(Br)ccc3oc2=O)cc1`, for which the Activity is recorded as 3.3%.

Test system in a further series: not listed separately
Nature of the series: Selectivity index, ratio of IC50 for hTERT-BJ cells to IC50 for human CCRF-CEM cells. The class given is toxicity. As to conditions: hTERT-BJ cells versus CCRF-CEM cells, read-out: Ratio IC50.
In the case of `CCOc1ccc(NC(=O)c2cc3cc([N+](=O)[O-])ccc3oc2=O)cc1`, the selectivity ratio is over 3.78.
Regarding `CCOc1ccc(NC(=O)c2cc3cc(Br)ccc3oc2=O)cc1`, the selectivity ratio is over 2.3.
Same read-out and setting: under `COc1cccc2c1C(=O)c1c(O)c3c(c(O)c1C2=O)C[C@@](O)(C(=O)CO)C[C@@H]3O[C@H]1C[C@H](N)[C@H](O)[C@H](C)O1` [DOXORUBICIN] stands under 5.95.

The test system of another series is hTERT-BJ. In words: Cytotoxicity against hTERT-BJ cells at 25 uM after 48 hrs by resazurin dye-based fluorescence assay relative to control. The class given is cell-based. The settings on record: human.
In turn, `CCOc1ccc(NC(=O)c2cc3cc([N+](=O)[O-])ccc3oc2=O)cc1` came in with an Activity of 5.22%.
Same read-out and setting: under `CCOc1ccc(NC(=O)c2cc3cc(Br)ccc3oc2=O)cc1` stands 1.86%.

Test system in the next series: not listed separately
Nature of the series: Selectivity index, ratio of IC50 for hTERT-BJ cells to IC50 for human HepG2 cells. The class given is toxicity. As to conditions: hTERT-BJ cells versus HepG2 cells, read-out: Ratio IC50.
As for `CCOc1ccc(NC(=O)c2cc3cc([N+](=O)[O-])ccc3oc2=O)cc1`, the selectivity ratio is over 1.77.
On the same count and under the same terms, under `CCOc1ccc(NC(=O)c2cc3cc(Br)ccc3oc2=O)cc1` stands over 1.35; under `COc1cccc2c1C(=O)c1c(O)c3c(c(O)c1C2=O)C[C@@](O)(C(=O)CO)C[C@@H]3O[C@H]1C[C@H](N)[C@H](O)[C@H](C)O1` [DOXORUBICIN], under 1.15.

The next series has as its system hTERT-BJ. In words: Cytotoxicity against hTERT-BJ cells at 6.25 uM after 48 hrs by resazurin dye-based fluorescence assay relative to control. It counts as cell-based. As to conditions: human.
In the case of `CCOc1ccc(NC(=O)c2cc3cc([N+](=O)[O-])ccc3oc2=O)cc1`, the Activity was determined as 3.1%.
Still for that read-out and setting: under `CCOc1ccc(NC(=O)c2cc3cc(Br)ccc3oc2=O)cc1` stands 2.3%.

Another series has as its system TERT-RPE1. Nature of the series: Cytotoxicity against hTERT-RPE1 cells after 48 hrs by resazurin dye-based fluorescence assay. It counts as cell-based. As to conditions: Homo sapiens, RPE-1, 48 h.
In the case of `CCOc1ccc(NC(=O)c2cc3cc([N+](=O)[O-])ccc3oc2=O)cc1`, the half-maximal inhibitory concentration (IC50) was over 50 µM.
On the same count and under the same terms, under `CCOc1ccc(NC(=O)c2cc3cc(Br)ccc3oc2=O)cc1` stands over 50 µM.
Compound `COc1cccc2c1C(=O)c1c(O)c3c(c(O)c1C2=O)C[C@@](O)(C(=O)CO)C[C@@H]3O[C@H]1C[C@H](N)[C@H](O)[C@H](C)O1` [DOXORUBICIN] came in with an IC50 of under 6.25 µM.

Another series deals with TERT-RPE1. Nature of the series: Cytotoxicity against hTERT-RPE1 cells at 25 uM after 48 hrs by resazurin dye-based fluorescence assay relative to control. As to conditions: human, tert-rpe1, 48 h. It counts as cell-based.
As to `CCOc1ccc(NC(=O)c2cc3cc([N+](=O)[O-])ccc3oc2=O)cc1`, the Activity is 8.22%.
`CCOc1ccc(NC(=O)c2cc3cc(Br)ccc3oc2=O)cc1` registered an Activity of 13.28%.

The subject of the next series is hTERT-BJ. Nature of the series: Cytotoxicity against hTERT-BJ cells after 48 hrs by resazurin dye-based fluorescence assay. The class given is cell-based. The settings on record: Homo sapiens.
`CCOc1ccc(NC(=O)c2cc3cc([N+](=O)[O-])ccc3oc2=O)cc1` had an IC50 of over 50 µM.
Consider `CCOc1ccc(NC(=O)c2cc3cc(Br)ccc3oc2=O)cc1`, for which the IC50 was over 50 µM.
As to `COc1cccc2c1C(=O)c1c(O)c3c(c(O)c1C2=O)C[C@@](O)(C(=O)CO)C[C@@H]3O[C@H]1C[C@H](N)[C@H](O)[C@H](C)O1` [DOXORUBICIN], the IC50 was under 6.25 µM.

Test system in a further series: not listed separately
Nature of the series: Selectivity index, ratio of IC50 for hTERT-BJ cells to IC50 for human PANC1 cells. It counts as toxicity. As to conditions: hTERT-BJ cells versus PANC1 cells, read-out: Ratio IC50.
For `CCOc1ccc(NC(=O)c2cc3cc([N+](=O)[O-])ccc3oc2=O)cc1`, the selectivity ratio is over 4.13.
Same read-out and setting: under `CCOc1ccc(NC(=O)c2cc3cc(Br)ccc3oc2=O)cc1` stands over 2.97; under `COc1cccc2c1C(=O)c1c(O)c3c(c(O)c1C2=O)C[C@@](O)(C(=O)CO)C[C@@H]3O[C@H]1C[C@H](N)[C@H](O)[C@H](C)O1` [DOXORUBICIN], under 0.91.

Test system in another series: not listed separately
Nature of the series: Selectivity index, ratio of IC50 for hTERT-RPE1 cells to IC50 for human HepG2 cells. The class given is toxicity. The settings on record: hTERT-RPE1 cells versus HepG2 cells, read-out: Ratio IC50.
In the case of `CCOc1ccc(NC(=O)c2cc3cc([N+](=O)[O-])ccc3oc2=O)cc1`, the selectivity ratio is over 1.77.
In the case of `CCOc1ccc(NC(=O)c2cc3cc(Br)ccc3oc2=O)cc1`, the selectivity ratio was over 1.35.
Still for that read-out and setting: under `COc1cccc2c1C(=O)c1c(O)c3c(c(O)c1C2=O)C[C@@](O)(C(=O)CO)C[C@@H]3O[C@H]1C[C@H](N)[C@H](O)[C@H](C)O1` [DOXORUBICIN] stands under 1.15.
